Columns and labels:
itchgrass = test: Test D itchgrass; type: in vivo, Rottboellia exaltata; details: Preemergence, 0 to 100 scale
How it was run: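 Scoring used a 0–100 visual injury scale, with 0 meaning no effect and 100 complete control, assessed 14–21 days after application alongside untreated pots. Preemergence treatments went onto sandy loam surfaces of separately potted seeds within a day of sowing.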

Green foxtail [1] = test: Test D green foxtail; type: in vivo; details: Preemergence, 0 to 100 scale
How it was run: (§1)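 Weed seeds planted in sandy loam; species kept apart in individual pots or compartments. Preemergence tests: treatment to soil surface within one day. Greenhouse growth, then visual injury scoring at 14–21 days (0–100).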

purple nutsedge = test: Test B pre/postemergence purple nutsedge; type: in vivo, Cyperus rotundus
How it was run: (§2)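 Test chemicals in a non-phytotoxic solvent mixture with surfactant were sprayed preemergence onto planted seeds and postemergence onto plants 2 to 18 cm tall (1- to 4-leaf stage). After twelve to sixteen days in a greenhouse, injury was visually rated against untreated controls from 0 (no effect) to 10 (complete control).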

dallisgrass = test: Test D dallisgrass; type: in vivo, Paspalum dilatatum; details: Preemergence, 0 to 100 scale
How it was run: as §1

wild oat = test: Test E wild oat; type: in vivo, Avena fatua; details: Preemergence, 0 to 100 scale where 0 is no effect and 100 is complete control
winter wheat [2] = test: Test E winter wheat; type: in vivo, Triticum aestivum; details: Preemergence
blackgrass = test: Test E blackgrass; type: in vivo, Alopecurus myosuroides; details: Preemergence
winter wheat [3] = test: Test E winter wheat; type: in vivo, Triticum aestivum; details: Postemergence
How it was run: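 For postemergence, plants at the 1- to 4-leaf stage, in a 60:40 mix of sandy loam and potting mix, treated with compound formulated in a surfactant-containing non-phytotoxic solvent. Visual assessment versus untreated controls followed roughly 21–28 days in the greenhouse.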

Green foxtail [4] = test: Test D green foxtail; type: in vivo
Text: Seeds, tubers, or plant parts of Alexandergrass (Brachiaria plantaginea), bermuda-grass (Cynodon dactylon), common pursiane (Portulaca oleracea), common ragweed (Ambrosia elatior), common groundsel (Senecio vulgaris), dallisgrass (Paspalum dilatatum), goosegrass (Eleusine indica), guineagrass (Panicum maximum), itchgrass (Rottboellia exaltata), Johnson grass (Sorghum halepense), large crabgrass (Digitaria sanguinalis), pitted morningglory (Ipomoea lacunosa), purple nutsedge (Cyperus rotundus), sandbur (Cenchrus echinatus), sourgrass (Trichachne insularis), Spanishneedles (Bidens bipinnata), surinam grass (Brachiaria decumbens) and tall mallow (Malva sylvestris) were planted into greenhouse pots of flats containing greenhouse planting medium. Plant species were grown in separate pots or individual compartments. Preemergence applications were made within one day of planting the seed or plant part.
Test chemicals were formulated in a non-phytotoxic solvent mixture which included a surfactant and applied preemergence to the surface of the pot containing seeds in a sandy loam soil. Untreated control pots and treated pots were placed in the greenhouse for growth and visually evaluated for injury 14 to 21 days after herbicide application. Plant response ratings, summarized in Table C, are based on a 0 to 100 scale where 0 is no injury and 100 is complete control. A dash (−) response means no test result.

Italian ryegrass = test: Test E Italian ryegrass; type: in vivo, Lolium multiflorum; details: Preemergence
crabgrass = test: Test B pre/postemergence crabgrass; type: in vivo, Digitaria sanguinalis
How it was run: as §2

winter barley = test: Test E winter barley; type: in vivo, Hordeum vulgare; details: Preemergence
bamyardgrass = test: Test B flood test barnyardgrass; type: in vivo, Echinochloa crus-galli
How it was run: (§3)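 Plants were grown to the 2-leaf stage before treatment with test chemical, then held in a greenhouse for twelve to sixteen days. Injury was visually rated against untreated controls on a 0–10 scale, where 0 is no effect and 10 is complete control.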

duck salad = test: Test B flood test duck salad; type: in vivo, Heteranthera limosa
How it was run: as §3

green foxtail [5] = test: Test E green foxtail; type: in vivo, Setaria viridis; details: Preemergence
[6] = Rate 16 g/ha, 0 no injury, 100 complete control
[7] = Rate 32 g/ha, 0 no injury, 100 complete control
[8] = Rate 64 g/ha, 0 no injury, 100 complete control
[9] = Rate 125 g/ha, 0 no injury, 100 complete control
[10] = Postemergence, Rate 62 g/ha, scale 0 to 10, 0 is no effect, 10 is complete control
[11] = Postemergence, Rate 250 g/ha, scale 0 to 10, 0 no effect, 10 complete control
[12] = Preemergence, Rate 62 g/ha, scale 0 to 10, 0 is no effect, 10 is complete control
[13] = Preemergence, Rate 125 g/ha, scale 0 to 10 (0 no effect, 10 complete control)
[14] = Preemergence, Rate 250 g/ha, scale of 0 to 10 where 0 is no effect and 10 is complete control
[15] = Preemergence, Rate 500 g/ha, scale 0 (no effect) to 10 (complete control)
[16] = Rate 125 g/ha, Postemergence, scale 0 to 10, 0 no effect, 10 complete control
[17] = Rate 500 g/ha, Postemergence, 0 to 10 scale (0 no effect, 10 complete control)
[18] = Rate 500 g/ha, 0 to 100 scale where 0 is no effect and 100 is complete control
[19] = Rate 1000 g/ha, 0 to 100 scale where 0 is no effect and 100 is complete control
[20] = Rate 64 g/ha, Preemergence; 0 to 100 scale, 0 no injury, 100 complete control
[21] = Rate 125 g/ha, Preemergence; 0 to 100 scale, 0 no injury, 100 complete control
[22] = Rate 250 g/ha, headed Pre-emergence (flood test species), scale 0 to 10 (0 no effect, 10 complete control)
[23] = Rate 500 g/ha, Postemergence section of Table B, 0 to 10 scale (0 no effect, 10 complete control)
[24] = Rate 500 g/ha, headed Pre-emergence (flood test species), scale 0 to 10 (0 no effect, 10 complete control)
[25] = Rate 1000 g/ha, Pre-emergence (as headed), scale 0 to 10
[26] = flood test, listed under Postemergence, Rate 250 g/ha, scale 0 to 10, 0 no effect, 10 complete control

Cc1cccc(C)c1-n1c(=O)on(C(=O)N(c2ccccc2)C(C)C)c1=O [Compound 46]
3: Crabgrass plant response rating (crabgrass; [11]) | Crabgrass plant response rating (crabgrass; [17])
85: Plant response rating, Green foxtail (green foxtail [5]; [18])
10: Plant response rating, Itchgrass (itchgrass; Rate 500 g/ha) | Plant response rating, Crabgrass (crabgrass; [14]) | Crabgrass plant response rating (crabgrass; [15])
1: Plant response rating, Crabgrass (crabgrass; [12])
55: Plant response rating, Blackgrass (blackgrass; [18])
2: Ducksalad plant response rating (duck salad; [25]) | Ducksalad plant response rating (duck salad; Rate 2000 g/ha, Pre-emergence (as headed), scale 0 to 10)
20: Plant response rating, Dallisgrass (dallisgrass; [6])
80: Plant response rating, Green foxtail (green foxtail [5]; [19])
30: Green foxtail plant response rating (Green foxtail [4]; [20]) | Plant response rating, Green foxtail (Green foxtail [4]; [20]) | Plant response rating, Barley (winter) (winter barley; Rate 250 g/ha, 0 to 100 scale)
0: Plant response rating, Itchgrass (itchgrass; [6]) | Plant response rating, Itchgrass (itchgrass; [7]) | Plant response rating, Itchgrass (itchgrass; [8]) | Plant response rating, Itchgrass (itchgrass; [9]) | Plant response rating, Itchgrass (itchgrass; Rate 250 g/ha) | Nutsedge plant response rating (purple nutsedge; [10]) | Nutsedge plant response rating (purple nutsedge; [11]) | Plant response rating, Nutsedge (purple nutsedge; [12]) | Plant response rating, Nutsedge (purple nutsedge; [13]) | Plant response rating, Nutsedge (purple nutsedge; [14]) | Nutsedge plant response rating (purple nutsedge; [15]) | Nutsedge plant response rating (purple nutsedge; [16]) | Nutsedge plant response rating (purple nutsedge; [17]) | Plant response rating, Green foxtail (Green foxtail [4]; Preemergence; Rate 16 g/ha; 0 to 100 scale, 0 no injury, 100 complete control) | Plant response rating, Green foxtail (Green foxtail [4]; Preemergence; Rate 32 g/ha; 0 to 100 scale, 0 no injury, 100 complete control) | Plant response rating, Green foxtail (Green foxtail [4]; Rate 16 g/ha; Preemergence; 0 to 100 scale, 0 no injury, 100 complete control) | Crabgrass plant response rating (crabgrass; [10]) | Crabgrass plant response rating (crabgrass; [16]) | Barnyardgrass plant response rating (bamyardgrass; [10]) | Barnyardgrass plant response rating (bamyardgrass; Rate 125 g/ha, Postemergence section (flood test species), scale 0 to 10, 0 no effect, 10 complete control) | Barnyardgrass plant response rating (bamyardgrass; [22]) | Barnyardgrass plant response rating (bamyardgrass; [23]) | Plant response rating, Barnyardgrass (bamyardgrass; [24]) | Barnyardgrass plant response rating (bamyardgrass; [25]) | Barnyardgrass plant response rating (bamyardgrass; [26]) | Ducksalad plant response rating (duck salad; [10]) | Ducksalad plant response rating (duck salad; [22]) | Ducksalad plant response rating (duck salad; [23]) | Plant response rating, Ducksalad (duck salad; [24]) | Ducksalad plant response rating (duck salad; [26])
70: Plant response rating, Wild oat (wild oat; Rate 1000 g/ha) | Plant response rating, Wheat (winter) (winter wheat [2]; [18]) | Plant response rating, Blackgrass (blackgrass; [19]) | Plant response rating, Wheat (winter) (winter wheat [3]; Rate 1000 g/ha, 0 to 100 scale, 0 is no effect and 100 is complete control) | Plant response rating, Wheat (winter) (winter wheat [3]; Rate 500 g/ha, 0 to 100 scale, 0 no effect, 100 complete control) | Plant response rating, I. Ryegrass (Italian ryegrass; [19])
60: Plant response rating, Wild oat (wild oat; Rate 500 g/ha) | Plant response rating, Wheat (winter) (winter wheat [3]; Rate 250 g/ha, 0 to 100 scale (0 no effect, 100 complete control)) | Plant response rating, Green foxtail (green foxtail [5]; Rate 250 g/ha, 0 to 100 scale)
75: Plant response rating, Green foxtail (Green foxtail [4]; Rate 32 g/ha; Preemergence; 0 to 100 scale, 0 no injury, 100 complete control)
100: Plant response rating, Green foxtail (Green foxtail [1]; Rate 250 g/ha) | Plant response rating, Green foxtail (Green foxtail [1]; Rate 500 g/ha) | Plant response rating, Dallisgrass (dallisgrass; [9]) | Plant response rating, Dallisgrass (dallisgrass; Rate 250 g/ha) | Plant response rating, Dallisgrass (dallisgrass; Rate 500 g/ha) | Plant response rating, Green foxtail (Green foxtail [4]; Rate 250 g/ha; Preemergence; 0 to 100 scale) | Plant response rating, Green foxtail (Green foxtail [4]; Rate 500 g/ha, Preemergence; 0 to 100 scale)
65: Plant response rating, I. Ryegrass (Italian ryegrass; [18])
40: Plant response rating, Dallisgrass (dallisgrass; [7]) | Plant response rating, Dallisgrass (dallisgrass; [8]) | Plant response rating, Wheat (winter) (winter wheat [2]; Rate 250 g/ha, 0 to 100 scale) | Plant response rating, Blackgrass (blackgrass; Rate 250 g/ha, 0 to 100 scale) | Green foxtail plant response rating (Green foxtail [4]; [21]) | Plant response rating, Green foxtail (Green foxtail [4]; [21]) | Plant response rating, Barley (winter) (winter barley; [18])
9: Barnyardgrass plant response rating (bamyardgrass; Rate 2000 g/ha, Pre-emergence (as headed), scale 0 to 10, 0 no effect, 10 complete control)
4: Plant response rating, Crabgrass (crabgrass; [13])
50: Plant response rating, Wheat (winter) (winter wheat [2]; [19]) | Plant response rating, I. Ryegrass (Italian ryegrass; Rate 250 g/ha, 0 to 100 scale) | Plant response rating, Barley (winter) (winter barley; [19])
